What is called IC50 is the concentration at which inhibition is half-maximal. A high value points to lower potency. For orientation: MIC means the smallest concentration in the dilution series that meets the test's criterion for growth inhibition.

Converted amounts (≈) assume the structure as drawn.

The text below walks through data of PMC10740580, “Benzothiazole-Phthalimide Hybrids as Anti-Breast Cancer and Antimicrobial Agents” (Antibiotics, 2023).

One experiment relates to MDA-MB-231 cells. The experiment is described as follows: MTT cell viability assay, MDA-MB-231. The class given is cell-based, human. The settings on record: mean ± SD; for IC50: Homo sapiens, MDA-MB-231, 72 h exposure. As to the method: The anticancer activity of the studied compounds (3a–h) was explored with regards to two human breast cancer cell lines, namely the estrogen receptor positive (ER+) MCF-7 cells and the triple negative MDA-MB-231 cells (ER-, PR-, and HER-2/Neu-). Cells were continuously exposed to the test substances for 72 h, after which their viability was assessed by means of the MTT assay. Table 2 lists the determined IC50 values for the investigated substances and the reference drug, thalidomide. […] Additionally, the same test for all the compounds has been performed on nonmalignant breast epithelial cells (MCF-10A) to ascertain their potential cytotoxicity.
The four cell lines used in this work (MCF-7, MDA-MB-231, MCF-10A, and 3T3-L1) were obtained from the American Type Culture Collection (ATCC, Manassas, VA, USA). All cell lines were maintained at 37 °C in a humidified atmosphere of 95% air and 5% CO2 and periodically screened for contamination. MCF-7, human breast cancer cells estrogen receptor (ER)-positive, and human breast cancer triple negative MDA-MB231 were grown in DMEM-F12 medium containing 2 mmol/L L-glutamine, 1 mg/mL penicillin–streptomycin, and 5% newborn calf serum (NCS) or 5% fetal bovine serum (FBS), respectively. MCF-10A human mammary epithelial cells were cultured in DMEM/F12 medium, supplemented with 5% horse serum (HS) (Eurobio, Les Ullis, Cedex, France), 100 U/mL penicillin/streptomycin, […], 20 ng/mL hEGF (human epidermal growth factor), […], and […] (Sigma-Aldrich, Milano, Italy). BALB/3T3 murine fibroblast cells were cultured in DMEM high glucose supplemented with 10% bovine calf serum (BCS), 1% L-glutamine, and 100 U/mL penicillin/streptomycin.
Cell viability was evaluated by means of the 3-(4,5-dimethylthiazol-2-y1)-2,5-diphenyltetra zolium bromide (MTT, Sigma-Aldrich, Milan, Italy) assay. On 48-well plates, cells were seeded, and they were cultured in complete medium. Before being treated, cells were starved in serum-free medium for 24 h to allow cell cycle synchronization. Subsequently, cells were exposed to increasing doses of each compound for 72 h in phenol-red-free media supplemented with 1% serum before fresh MTT was added to each well (final concentration: 0.5 mg/mL). Cells were lysed with DMSO after 2 h of incubation at 37 °C, and optical density at 570 nm was then determined with a microplate reader. Using GraphPad Prism 9 software (GraphPad Inc., San Diego, CA, USA), the mean absorbance for each sample was expressed as a percentage over the control and plotted vs. drug concentrations to establish the IC50 values. The given standard deviations (SDs) are indicative of three separate tests carried out in triplicate.

The subject of experiment [1] is Staphylococcus aureus 25923. The experiment is described as follows: Broth microdilution, S. aureus ATCC 25923. The settings on record: 37 °C; for MIC: Staphylococcus aureus, 25923, 24 h. The experiment is classed as cell-based. The text has this: (§1) Compounds 3a–h were examined in accordance with the Clinical Laboratory Standards Institute (CLSI) recommendations, by means of the broth microdilution method, against gram-positive bacteria (Staphylococcus aureus 25923, Staphylococcus aureus 29213, Staphylococcus aureus 43300, Enterococcus faecalis 29212) and gram-negative bacteria (Escherichia coli 25922, Klebsiella pneumoniae 13883, Pseudomonas aeruginosa 27853) belonging to the ATCC collection, using levofloxacin as a reference drug. Table 3 lists the results, expressed as MIC (µg/mL). […] The lack of activity observed for compound 3d could be conceivably due to its poor solubility in the culture medium containing the inoculum.
Following the recommendations of the CLSI (Clinical and Laboratory Standards Institute, 2012), the broth microdilution method was used to determine the in vitro minimum inhibitory concentrations (MICs, µg/mL).. The concentration of the investigated compounds was set to its highest value to create stock solutions. Then, the stock solutions were diluted 1:10 with Cation-Adjusted Mueller Hinton Broth (Oxoid, Milan, Italy). After that, a series of concentrations from 512 µg/mL to […] were obtained in the wells by performing two-fold serial dilutions in the appropriate test medium. The diluent used to create the stock solution was 100% DMSO. We used the following bacterial strains from the ATCC collection that were available as freeze-dried discs: gram-positive strains such as S. aureus ATCC 25923, 29213, and 43300, and E. faecalis ATCC 29212, and gram-negative ones such as E. coli ATCC 25922, K. pneuomoniae ATCC 13883, and P. aeruginosa ATCC 27853. To preserve the purity of cultures and to allow their reproducibility, cryovials of all microbial strains were set up in the medium and stored at −80 °C. Mueller Hinton Broth (MHB) was used to prepare pre-cultures of each bacterial strain, which were then incubated for 3–5 h at 37 °C. In accordance with CLSI procedure M7-A9, the turbidity of the bacterial cell suspension was calibrated to 0.5 McFarland Standard using a spectrophotometric approach (OD625 nm 0.08–0.10). The standardized suspension was then further diluted (1:100) with MHB to reach 1–2 × 10^6 CFU/mL. A 200 µL aliquot of the final inoculum was inserted into each well. As a control for growth, several wells containing only inoculated broth were prepared. The plates were incubated at 37 °C for 24 h, and the MIC values were calculated as the lowest concentration of compounds at which there was no optically detectable bacteria growth. Each experiment was carried out in duplicate and repeated twice to determine the MICs. Levofloxacin served as the study’s standard reference antibiotic. Additionally, the antibacterial activity of DMSO alone (used as a diluent for the investigated compounds) was examined; therefore, volumes of this solvent with a concentration of less than 5% were utilized throughout the experimentation.

In another experiment the test system is angiogenesis. The conditions noted are these: previous study, reduced side effects compared to thalidomide; cited from earlier work.
The test system of the next experiment is gram-negative bacteria. The experiment is described as follows: Broth microdilution, gram-negative bacteria. The experiment is classed as cell-based. The settings on record: read-out: MIC against gram-negative bacteria.
Excerpt: as §1
Following the recommendations of the CLSI (Clinical and Laboratory Standards Institute, 2012), the broth microdilution method was used to determine the in vitro minimum inhibitory concentrations (MICs, µg/mL).. The concentration of the investigated compounds was set to its highest value to create stock solutions. Then, the stock solutions were diluted 1:10 with Cation-Adjusted Mueller Hinton Broth (Oxoid, Milan, Italy). After that, a series of concentrations from 512 µg/mL to […] were obtained in the wells by performing two-fold serial dilutions in the appropriate test medium. The diluent used to create the stock solution was 100% DMSO. We used the following bacterial strains from the ATCC collection that were available as freeze-dried discs: gram-positive strains such as S. aureus ATCC 25923, 29213, and 43300, and E. faecalis ATCC 29212, and gram-negative ones such as E. coli ATCC 25922, K. pneuomoniae ATCC 13883, and P. aeruginosa ATCC 27853. To preserve the purity of cultures and to allow their reproducibility, cryovials of all microbial strains were set up in the medium and stored at −80 °C. Mueller Hinton Broth (MHB) was used to prepare pre-cultures of each bacterial strain, which were then incubated for 3–5 h at 37 °C. […]
On the technique in general: In broth dilution the organism is exposed to a series of concentrations in liquid medium.

For the next experiment, the system named is gram-positive bacteria. The experiment is described as follows: Broth microdilution, gram-positive bacteria. The experiment is classed as cell-based. The settings on record: read-out: MIC against gram-positive bacteria.
Excerpt: as §1
Following the recommendations of the CLSI (Clinical and Laboratory Standards Institute, 2012), the broth microdilution method was used to determine the in vitro minimum inhibitory concentrations (MICs, µg/mL).. The concentration of the investigated compounds was set to its highest value to create stock solutions. Then, the stock solutions were diluted 1:10 with Cation-Adjusted Mueller Hinton Broth (Oxoid, Milan, Italy). After that, a series of concentrations from 512 µg/mL to […] were obtained in the wells by performing two-fold serial dilutions in the appropriate test medium. The diluent used to create the stock solution was 100% DMSO. […]

As to `O=C1c2ccccc2C(=O)N1c1nc2ccc(C(F)(F)F)cc2s1` [3c, 2-[6-Trifluoromethyl-1,3-benzothiazol-2-yl]-1H-isoindole-1,3(2H)-dione], the “IC50 MDA-MB-231” value in the experiment with MDA-MB-231 cells (72 h exposure) was “did not possess any activity”. The same compound came in with an IC50 in the experiment on MDA-MB-231 cells greater than 500 µM. In addition, in experiment [1], 128 µg/mL (≈ 367 µM) was the least that counted as inhibitory (MIC).

Consider `Cc1ccc2nc(N3C(=O)c4ccccc4C3=O)sc2c1` [3d, 2-[6-Methyl-1,3-benzothiazol-2-yl]-1H-isoindole-1,3(2H)-dione], for which the IC50 in the experiment on MDA-MB-231 cells amounted to 202.6 ± 0.6 µM. This compound also displayed an MIC in experiment [1] greater than 512 µg/mL. In addition, the antiangiogenic activity result with angiogenesis was “performed as antiangiogenic agents”.

As for `COc1ccc2nc(N3C(=O)c4ccccc4C3=O)sc2c1` [3e, 2-[6-Methoxy-1,3-benzothiazol-2-yl]-1H-isoindole-1,3(2H)-dione], it took 102.8 ± 0.9 µM to reach half-maximal inhibition in the experiment on MDA-MB-231 cells (IC50). Besides, in experiment [1], the MIC is 32 µg/mL (≈ 103 µM).

In turn, `O=C1c2ccccc2C(=O)N1c1nc2ccccc2s1` [3a, 2-(1,3-benzothiazol-2-yl)-1H-isoindole-1,3(2H)-dione] came in with an IC50 in the experiment on MDA-MB-231 cells of 81.8 ± 0.8 µM. Besides, the lowest concentration to inhibit growth in experiment [1] (MIC) was 64 µg/mL (≈ 228 µM). In addition, the antiangiogenic activity result with angiogenesis is “performed as antiangiogenic agents”.

`O=C1c2ccccc2C(=O)N1c1nc2ccc(Oc3ccccc3)cc2s1` [3h, 2-[6-Phenoxy-1,3-benzothiazol-2-yl]-1H-isoindole-1,3(2H)-dione] had an IC50 in the experiment on MDA-MB-231 cells of 14 ± 0.5 µM. In addition, in experiment [1] (24 h), the “MIC S.a. 25923” value stood at 16 µg/mL (≈ 43 µM). The MIC in experiment [1] worked out at 16 µg/mL (≈ 43 µM); with gram-negative bacteria, 32 µg/mL (≈ 85.9 µM).

Consider `O=C1c2ccccc2C(=O)N1c1nc2ccc(F)cc2s1` [3b, 2-(6-Fluoro-1,3-benzothiazol-2-yl)-1H-isoindole-1,3(2H)-dione], for which the IC50 with MDA-MB-231 cells amounted to 71.2 ± 1 µM. Also, in experiment [1], the MIC was found to be 64 µg/mL (≈ 215 µM).

With `COc1cc2nc(N3C(=O)c4ccccc4C3=O)sc2cc1OC` [3f, 2-[5,6-Dimethoxy-1,3-benzothiazol-2-yl]-1H-isoindole-1,3(2H)-dione], half-maximal inhibition in the experiment with MDA-MB-231 cells (IC50) required 49.6 ± 1 µM. For the same compound, the figures for the MIC (in experiment [1]; with gram-negative bacteria; in the experiment with gram-positive bacteria) were 32 µg/mL (≈ 94 µM), 64 µg/mL (≈ 188 µM) and 32 to 64 µg/mL (≈ 94 to 188 µM), respectively.

`O=C1c2ccccc2C(=O)N1c1nc2ccc(O)cc2s1` [3g, 2-[6-Hydroxy-1,3-benzothiazol-2-yl]-1H-isoindole-1,3(2H)-dione] yielded an IC50 in the experiment with MDA-MB-231 cells of 63.3 ± 0.7 µM. Moreover, the figures for the MIC (in experiment [1]; with gram-negative bacteria; with gram-positive bacteria) were 32 µg/mL (≈ 108 µM), 64 µg/mL (≈ 216 µM) and 32 to 64 µg/mL (≈ 108 to 216 µM), respectively.
